Experimental data reported in patent publication US10494378B2, “Fused ring pyrimidine compound, intermediate, and preparation method, composition and use thereof” (GUANGZHOU MAXINOVEL PHARMACEUTICALS CO., LTD., priority 2015, dated 2019).

Tests used:
Format in all cases: biochemical
JAK1 kinase = molecular target: T1, JAK1 kinase (Homo sapiens, UniProt P23458); assay: IC50 evaluation assay on JAK1 kinase inhibition (Caliper); conditions: adenosine triphosphate at Km; 1 hour at 28° C.; average of two tests; read-out: IC50 (nM) inhibiting JAK 1 kinase
T1 construct: purchased Carna 08-144
T1 sequence (P23458 whole entry): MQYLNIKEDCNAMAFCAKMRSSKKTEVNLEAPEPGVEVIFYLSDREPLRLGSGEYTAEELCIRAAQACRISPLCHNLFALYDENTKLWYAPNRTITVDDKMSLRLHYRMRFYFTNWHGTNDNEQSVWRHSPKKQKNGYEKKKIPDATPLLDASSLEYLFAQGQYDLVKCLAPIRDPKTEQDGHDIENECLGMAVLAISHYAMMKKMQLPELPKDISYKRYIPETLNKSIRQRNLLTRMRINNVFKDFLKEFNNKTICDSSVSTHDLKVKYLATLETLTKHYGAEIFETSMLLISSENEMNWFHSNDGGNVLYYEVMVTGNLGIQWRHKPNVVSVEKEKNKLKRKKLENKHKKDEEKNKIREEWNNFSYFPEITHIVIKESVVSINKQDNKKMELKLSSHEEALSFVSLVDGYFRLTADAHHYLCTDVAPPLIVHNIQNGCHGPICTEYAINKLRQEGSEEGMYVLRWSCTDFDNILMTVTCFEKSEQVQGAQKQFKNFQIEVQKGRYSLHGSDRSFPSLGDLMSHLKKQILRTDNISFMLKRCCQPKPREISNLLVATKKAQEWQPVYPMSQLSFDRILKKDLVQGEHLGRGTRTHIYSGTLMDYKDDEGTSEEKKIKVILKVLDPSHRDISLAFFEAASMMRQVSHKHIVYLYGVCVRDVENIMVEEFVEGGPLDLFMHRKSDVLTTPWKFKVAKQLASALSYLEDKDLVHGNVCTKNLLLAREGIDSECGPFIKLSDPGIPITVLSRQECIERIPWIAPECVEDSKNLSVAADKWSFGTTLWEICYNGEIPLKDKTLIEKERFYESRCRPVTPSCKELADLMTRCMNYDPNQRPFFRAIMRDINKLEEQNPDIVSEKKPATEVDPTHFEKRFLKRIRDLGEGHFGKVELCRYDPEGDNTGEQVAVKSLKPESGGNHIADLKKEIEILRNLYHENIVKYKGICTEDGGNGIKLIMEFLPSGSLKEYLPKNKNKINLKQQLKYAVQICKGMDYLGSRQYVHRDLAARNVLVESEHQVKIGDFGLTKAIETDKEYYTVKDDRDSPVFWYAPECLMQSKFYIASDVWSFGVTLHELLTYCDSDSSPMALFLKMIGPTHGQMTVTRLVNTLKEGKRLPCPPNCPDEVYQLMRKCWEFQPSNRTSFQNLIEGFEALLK
Experimental: (§1) 1. The compound was dissolved in 100% DMSO, diluted into solutions with appropriate concentration gradients with water according to experimental requirement, and added to a 384-well plate.
(§2) 2. JAK2 kinase (Carna, Cat. No. 08-045, Lot. No. 07CBS-1927) and JAK3 kinase (Carna, Cat. No. 08-046, Lot. No. 08CBS-0371) were diluted to the optimum concentration with the following buffer solution: 50 mM HEPES, pH 7.5, 0.0015% Brij-35, 2 mM DTT. JAK1 kinase (Carna, Cat. No. 08-144, Lot. No. 11CBS-0144D) was diluted to the optimum concentration with the following buffer solution: 25 mM HEPES pH 7.5, 0.01% Brij-35, 2 mM DTT, 0.01M Triton. Transfer to the 384-well plate and incubated with the compound for a period of time.
(§3) 3. […] The substrate of JAK1 was diluted to the optimum concentration with the following buffer: 25 mM HEPES, pH 7.5, 0.01% Brij-35, 10 mM MgCl2, 0.01M Triton, adenosine triphosphate at Km. Add to the 384-well plate to initiate there action and react for 1 hour at 28° C.
(§4) 4. 1 Eq. of sulfuric acid solution was added to terminate the reaction, the conversion rate was read with Caliper Reader. The inhibition rate was calculated as the average of two tests.

JAK3 kinase = molecular target: T2, JAK3 kinase (Homo sapiens, UniProt P52333); assay: IC50 evaluation assay on JAK3 kinase inhibition (Caliper); conditions: adenosine triphosphate at Km; 1 hour at 28° C.; average of two tests; read-out: IC50 (nM) inhibiting JAK 3 kinase
T2 construct: purchased Carna 08-046
T2 sequence (P52333 1-1124): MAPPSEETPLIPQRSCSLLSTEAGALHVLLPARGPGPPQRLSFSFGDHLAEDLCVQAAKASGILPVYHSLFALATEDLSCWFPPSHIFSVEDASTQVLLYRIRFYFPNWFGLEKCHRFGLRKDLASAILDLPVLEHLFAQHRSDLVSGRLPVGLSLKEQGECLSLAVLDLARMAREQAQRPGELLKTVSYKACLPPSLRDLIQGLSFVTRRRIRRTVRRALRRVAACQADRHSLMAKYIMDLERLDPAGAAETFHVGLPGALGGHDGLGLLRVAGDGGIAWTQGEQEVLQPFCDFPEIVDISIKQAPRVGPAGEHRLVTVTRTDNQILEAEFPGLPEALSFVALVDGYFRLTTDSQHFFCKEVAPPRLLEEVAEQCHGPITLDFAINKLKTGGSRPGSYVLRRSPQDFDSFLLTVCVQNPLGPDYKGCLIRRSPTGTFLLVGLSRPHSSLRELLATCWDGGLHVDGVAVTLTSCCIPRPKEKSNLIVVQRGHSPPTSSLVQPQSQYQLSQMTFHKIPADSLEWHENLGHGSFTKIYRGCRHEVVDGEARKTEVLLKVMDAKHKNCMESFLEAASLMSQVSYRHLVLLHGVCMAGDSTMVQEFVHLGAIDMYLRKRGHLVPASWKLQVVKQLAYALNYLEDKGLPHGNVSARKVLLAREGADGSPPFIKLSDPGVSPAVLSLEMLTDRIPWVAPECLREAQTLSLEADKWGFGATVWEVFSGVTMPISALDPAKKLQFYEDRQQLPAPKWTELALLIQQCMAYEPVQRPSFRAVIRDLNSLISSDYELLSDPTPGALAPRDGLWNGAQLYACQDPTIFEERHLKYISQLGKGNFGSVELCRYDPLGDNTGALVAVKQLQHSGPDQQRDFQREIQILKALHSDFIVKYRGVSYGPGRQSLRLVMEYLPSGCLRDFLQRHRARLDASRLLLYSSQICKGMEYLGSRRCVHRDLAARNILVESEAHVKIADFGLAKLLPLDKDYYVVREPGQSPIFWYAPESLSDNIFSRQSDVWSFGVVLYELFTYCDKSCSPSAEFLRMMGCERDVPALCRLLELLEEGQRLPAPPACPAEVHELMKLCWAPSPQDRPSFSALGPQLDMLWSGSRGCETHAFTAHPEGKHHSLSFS
Experimental: as §1, §2, §3, §4

JAK2 kinase = molecular target: T3, JAK2 kinase (Homo sapiens, UniProt O60674); assay: IC50 evaluation assay on JAK2 kinase inhibition (Caliper); conditions: adenosine triphosphate at Km; 1 hour at 28° C.; average of two tests; read-out: IC50 (nM) inhibiting JAK 2 kinase
T3 construct: purchased Carna 08-045
T3 sequence (O60674 whole entry): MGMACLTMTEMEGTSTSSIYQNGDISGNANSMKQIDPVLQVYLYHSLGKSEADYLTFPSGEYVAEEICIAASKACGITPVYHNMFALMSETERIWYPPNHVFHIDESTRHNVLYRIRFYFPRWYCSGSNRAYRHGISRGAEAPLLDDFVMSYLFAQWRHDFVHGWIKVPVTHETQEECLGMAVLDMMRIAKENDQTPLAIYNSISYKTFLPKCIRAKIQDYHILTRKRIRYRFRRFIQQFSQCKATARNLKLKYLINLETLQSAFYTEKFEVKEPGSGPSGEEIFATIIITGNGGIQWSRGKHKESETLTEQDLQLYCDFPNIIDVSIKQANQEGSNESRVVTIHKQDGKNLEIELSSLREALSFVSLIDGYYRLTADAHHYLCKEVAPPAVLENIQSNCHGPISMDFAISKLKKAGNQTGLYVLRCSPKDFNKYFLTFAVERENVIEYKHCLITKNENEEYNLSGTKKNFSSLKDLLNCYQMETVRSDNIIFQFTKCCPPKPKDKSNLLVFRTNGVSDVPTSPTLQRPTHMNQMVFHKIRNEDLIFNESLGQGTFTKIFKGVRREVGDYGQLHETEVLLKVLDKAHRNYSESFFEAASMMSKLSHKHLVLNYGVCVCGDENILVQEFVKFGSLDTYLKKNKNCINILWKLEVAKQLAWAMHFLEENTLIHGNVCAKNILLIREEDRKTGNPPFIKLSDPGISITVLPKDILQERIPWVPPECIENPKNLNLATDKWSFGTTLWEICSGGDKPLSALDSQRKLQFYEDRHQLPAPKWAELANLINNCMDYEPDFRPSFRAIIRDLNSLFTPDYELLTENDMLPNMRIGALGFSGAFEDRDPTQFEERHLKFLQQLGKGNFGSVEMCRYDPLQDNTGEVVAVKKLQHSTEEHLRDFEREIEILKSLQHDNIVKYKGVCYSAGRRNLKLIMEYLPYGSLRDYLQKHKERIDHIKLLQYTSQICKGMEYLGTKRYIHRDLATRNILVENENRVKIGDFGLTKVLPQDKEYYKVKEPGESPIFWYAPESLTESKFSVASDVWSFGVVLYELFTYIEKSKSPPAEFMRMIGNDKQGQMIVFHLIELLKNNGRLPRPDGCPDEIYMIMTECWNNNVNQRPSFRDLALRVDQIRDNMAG
Experimental: as §1, §2, §3, §4

IC50 (JAK1 kinase) [nM] | IC50 (JAK3 kinase) [nM] | IC50 (JAK2 kinase) [nM] | Compound
1.1 | 0.64 | 0.37 | COc1cc(OCC(=O)N2CCC2)ccc1-c1c(C)sc2cnc(Nc3cnn(C)c3)nc12 [Compound 23]
14 | 0.99 | 1.8 | Cc1sc2cnc(Nc3cnn(C)c3)nc2c1-c1cccc2c1OCC2 [Compound 2, N-[7-(2,3-dihydro-1-benzofuran-7-yl)-6-methylthieno[3,2-d]pyrimidinyl-2-yl]-1-methyl-1H-pyrazol-4-amine]
18.5 | 12.9 | 8.9 | Cc1sc2cnc(Nc3cnn(C)c3)nc2c1-c1ccccc1Cl [Compound 33, N-[7-(2-chlorophenyl)-6-methylthieno[3,2-d]pyrimidinyl-2-yl]-1-methyl-1H-pyrazol-4-amine]
58 | 9.8 | 2.1 | COc1cc(S(C)(=O)=O)ccc1-c1cccc2cnc(Nc3cnn(C4CCNCC4)c3)nc12 [Compound 49, 8-(4-methylsulfonyl-2-methoxyphenyl)-N-[1-(4-piperidin)-1H-pyrazol-4-yl]quinazolin-2-amine]
2.4 | 1 | 5.8 | COc1ccccc1-c1cccc2cnc(Nc3cnn(C4CCNCC4)c3)nc12 [Compound 45, 8-(2-Methoxyphenyl)-N-[1-(4-piperidinyl)-1H-pyrazol-4-yl]quinazolin-2-amine]
54 | 16 | 7.7 | c1cc2c(c(-c3cccc4cnc(Nc5cnn(C6CCNCC6)c5)nc34)c1)OCC2 [Compound 44, 8-(2,3-Dihydro-1-benzofuran-7-yl)-N-[1-(4-piperidin)-1H-pyrazol-4-yl]quinazolin-2-amine]
12 | 1.4 | 1.4 | COc1cc(Cl)ccc1-c1c(C)sc2cnc(Nc3cnn(C)c3)nc12 [Compound 6, N-[7-(4-chloro-2-dimethoxyphenyl)-6-methylthieno[3,2-d]pyrimidinyl-2-yl]-1-methyl-1H-pyrazol-4-amine]
13 | 2.1 | 1.8 | COc1cc(O[C@H]2CCOC2)ccc1-c1c(C)sc2cnc(Nc3cnn(C)c3)nc12 [Compound 15, N-(7-{2-methoxy-4-[(3S)-3-tetrahydrofuranoxy]phenyl}-6-methylthieno[3,2-d]pyrimidinyl-2-yl]-1-methyl-1H-pyrazol-4-amine]
13 | 1.8 | 1.2 | COc1ccc(-c2c(C)sc3cnc(Nc4cnn(C)c4)nc23)c(OC)c1 [Compound 7, N-[7-(2,4-dimethoxyphenyl)-6-methylthieno[3,2-d]pyrimidinyl-2-yl]-1-methyl-1H-pyrazol-4-amine]
18 | 0.71 | 1.6 | Cc1sc2cnc(Nc3cnn(C4CCOCC4)c3)nc2c1-c1cccc2c1OCC2 [Compound 39, N-[7-(2,3-dihydro-1-benzofuran-7-yl)-6-methylthieno[3,2-d]pyrimidin-2-yl]-1-(tetrahydropyran-4-yl)-1H-pyrazol-4-amine]
13 | 0.41 | 0.82 | Cc1sc2cnc(Nc3cnn(C4CCN(C(=O)CO)CC4)c3)nc2c1-c1cccc2c1OCC2 [Compound 36, 1-[4-(4-{[7-(2,3-dihydro-1-benzofuran-7-yl)-6-methylthieno[3,2-d]pyrimidinyl-2-yl]amino}-1H-pyrazol-1-yl)piperidinyl-1-yl]-2-hydroxyacetamide]
12 | 1.4 | 1.8 | COc1cc(O[C@@H]2CCOC2)ccc1-c1c(C)sc2cnc(Nc3cnn(C)c3)nc12 [Compound 12, N-(7-{2-methoxy-4-[(3R)-3-tetrahydrofuranoxyl]phenyl]-6-methylthieno[3,2-d]pyrimidinyl-2-yl]-1-methyl-1H-pyrazol-4-amine]
41 | 33.7 | 36 | Cc1sc2cnc(Nc3cnn(C)c3)nc2c1-c1ccccc1N(C)C [Compound 41, N-{7-[2-(dimethylamino)phenyl]-6-methylthieno[3,2-d]pyrimidin-2-yl}-1-methyl-1H-pyrazol-4-amine]
7.2 | 1 | 1.7 | COc1ncccc1-c1c(C)sc2cnc(Nc3cnn(C)c3)nc12 [Compound 43]
16 | 1.3 | 2.3 | COc1cc(OCCCN2CCOCC2)ccc1-c1c(C)sc2cnc(Nc3cnn(C)c3)nc12 [Compound 17, N-(7-{2-methoxy-4-[3-(4-morpholinyl)propoxy]phenyl}-6-methylthieno[3,2-d]pyrimidinyl-2-yl)-1-methyl-1H-pyrazol-4-amine]
58 | 3 | 9.6 | COc1ccccc1-c1cncc2cnc(Nc3cnn(C4CCNCC4)c3)nc12 [Compound 47, N-[8-(2-methoxyphenyl)pyridino[4,3-d]pyrimidin-2-yl]-1-(4-piperidin)-1H-pyrazol-4-amine]
10.6 | 3.6 | 1.1 | Cc1sc2cnc(Nc3cnn(C)c3)nc2c1-c1ccccc1OC(F)F [Compound 10, N-{7-[2-(difluoromethoxy)phenyl]-6-methylthieno[3,2-d]pyrimidinyl-2-yl]-1-methyl-1H-pyrazol-4-amine]
75.8 | 1.3 | 23 | CN(c1ccccc1-c1csc2cnc(Nc3cnn(C)c3)nc12)S(C)(=O)=O [Compound 28, N-methyl-N-(2-{2-[(1-methyl-1H-pyrazol-4-yl)amino]thieno[3,2-d]pyrimidinyl-7-yl}phenyl)methanesulfonamide]
9 | 1.3 | 0.94 | COc1cc(OCCCS(C)(=O)=O)ccc1-c1c(C)sc2cnc(Nc3cnn(CCO)c3)nc12 [Compound 24, 2-(4-{[7-(4-(3-methylsulfonylpropoxy)-2-methoxyphenyl]-6-methylthieno[3,2-d]pyrimidinyl-2-yl}amino)-1H-pyrazol-1-yl]-1-ethanol]
43 | 1.5 | 1.7 | COc1ccccc1-c1c(C)sc2cnc(Nc3cnn(CCN4CCN(C)CC4)c3)nc12 [Compound 22]
6.8 | 1.7 | 1.7 | COc1ccccc1-c1c(C)sc2cnc(Nc3cnn(C)c3)nc12 [Compound 1, N-[7-(2-methoxyphenyl)-6-methylthieno[3,2-d]pyrimidinyl-2-yl]-1-methyl-1H-pyrazol-4-amine]
20 | 4.5 | 4.3 | COc1cc(OCCCN2CCCC2)ccc1-c1c(C)sc2cnc(Nc3cnn(C)c3)nc12 [Compound 18, N-(7-{2-methoxy-4-[3-(1-pyrrolidinyl)propoxy]phenyl}-6-methylthieno[3,2-d]pyrimidinyl-2-yl)-1-methyl-1H-pyrazol-4-amine]
47 | 29 | 13 | COc1ccncc1-c1c(C)sc2cnc(Nc3cnn(C)c3)nc12 [Compound 42]
12 | 1.6 | 1.6 | COc1ccccc1-c1c(C)sc2cnc(Nc3cnn(CCCN4CCCC4)c3)nc12 [Compound 26, N-[7-(2-methoxyphenyl)-6-methylthieno[3,2-d]pyrimidinyl-2-yl]-1-[3-(1-pyrrolidinyl)propyl]-1H-pyrazol-4-amine]
